{"source": "paper PMC11096083", "about": "(Cancer research, 2024)", "key": {"[1]": {"target": "T1, HSD3B7 (Homo sapiens, UniProt Q9H2F3)", "T1 sequence (Q9H2F3 1-369)": "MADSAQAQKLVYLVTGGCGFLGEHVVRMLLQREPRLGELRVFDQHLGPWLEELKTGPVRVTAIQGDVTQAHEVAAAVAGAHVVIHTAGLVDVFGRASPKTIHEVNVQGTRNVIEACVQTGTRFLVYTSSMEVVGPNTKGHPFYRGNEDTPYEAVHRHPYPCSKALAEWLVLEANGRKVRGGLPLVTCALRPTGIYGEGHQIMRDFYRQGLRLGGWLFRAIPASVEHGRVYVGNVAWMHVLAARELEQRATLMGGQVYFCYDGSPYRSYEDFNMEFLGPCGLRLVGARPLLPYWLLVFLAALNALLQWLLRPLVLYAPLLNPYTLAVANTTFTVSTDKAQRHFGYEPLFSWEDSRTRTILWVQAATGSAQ", "assay": "recombinant HSD3B7 activity by NAD+ reduction to NADH", "assay_type": "biochemical"}, "[2]": {"target": "T1, HSD3B7", "assay": "recombinant HSD3B7 NAD", "assay_type": "biochemical"}}, "data": [{"smiles": "NC(=O)c1ccc[n+]([C@@H]2O[C@H](COP(=O)([O-])OP(=O)(O)OC[C@H]3O[C@@H](n4cnc5c(N)ncnc54)[C@H](O)[C@@H]3O)[C@@H](O)[C@H]2O)c1", "note": "[NAD+]", "values": [{"measurement": "recombinant HSD3B7 activity by NAD+ reduction to NADH (fluorescence)", "setting": "[1]", "result": "recombinant human HSD3B7 protein, whose enzymatic activity was assessed by monitoring fluorescence induced by NAD^+ reduction to NADH"}]}, {"smiles": "CC1=C(O)C(=O)C=C2C1=CC=C1[C@@]2(C)CC[C@@]2(C)[C@@H]3C[C@](C)(C(=O)O)CC[C@]3(C)CC[C@]12C", "note": "[celastrol]", "values": [{"measurement": "IC50", "setting": "[2]", "result": "low micromolar"}]}, {"smiles": "COc1ccc(-c2cc(=O)c3c(O)cc(O)c(-c4cc(-c5cc(=O)c6c(O)cc(O)cc6o5)ccc4OC)c3o2)cc1", "note": "[isoginkgetin]", "values": [{"measurement": "IC50", "setting": "[2]", "result": "low micromolar"}]}]}
